Reference: patent US20050250093A1, “Hepatitis c virus sub-genomic replicons” (priority 2002, published 2005)

Columns and labels:
type 1a replicon system = assay: Susceptibility of the type 1a replicon system to interferon and antiviral agents; assay type: cell-based, HCV; settings: type 1a replicon vs type 1b replicon system
Huh-7 cells [1] = assay: Analysis of replicon copy number by TaqMan; assay type: cell-based, human; settings: real-time PCR with primers and probes in the neo gene on total RNA from replicon cells
Procedure: Next, replicon RNA was quantified by TaqMan. Real-time PCR was conducted with primers and probes in the neo gene on total RNA isolated from the replicon cells and on standard neo containing DNA. Copy numbers of the replicon were calculated based on standard curve generated from known amount of in vitro transcribed RNA. J4 M/S contained about 147 copies/cell, BB7-F1 contained 57 copies/cell, HCV 1a replicon has 165 copies/cell, BB7/H77NS5B has 29 copies/cell. For a positive control, HCV BB7 replicon that has 1500 copies/cell while Huh-7 cells served as negative controls.
Cells were trypinized and counted to determine cell number. The total cellular RNA was isolated using RNeasy Mini Kit (Qiagen) following the manufacturer's protocol. The RNA was stored at −80° C. or assayed by TaqMan quantitative RT-PCR. For analysis by TaqMan PCR, a master mix was prepared using TaqMan EZ RT-PCR Kit (Applied Biosystems #403028), TaqMan PDAR Control Reagent Human Cyclophilin (Applied Biosystems #4310883E), custom primer Neo^R fwd CCG GCT ACC TGC CCA TTC [SEQ ID NO:28] […] Data was analyzed by leaving the baseline to default level on both layers, and set a threshold to an equal value for both dye layers. […] The copy number for each replicon sample was calculated by taking the sample's Ct value, minus the line intercept, divided by the slope of the line.

Huh-7 cells [2] = assay: Stable replication / G418 resistance after electroporation of replicon RNA into Huh-7 cells; assay type: cell-based, human; settings: replicon RNA prepared in vitro, G418 selection
Procedure: In the present invention, certain chimeric replicon constructs were generated from pHCVrep1b(BB7) with sequences substituted with either type 1aHCV H77 sequence or by HCV type 1b J4 strain sequence. […] The methods for constructing these replicons are described herein.
RNA transcribed from the above replicon DNA was electroporated into Huh-7 cells according to the procedures in the examples. G418 resistant cells were obtained by incubating the cells in G418-containing media. Once the cells were amplified, total cellular protein was separated on SDS-PAGE and probed by NS5A serum to assess whether HCV proteins were expressed. As predicted, all three replicon cell lines expressed NS5A as shown on figure. Genomic DNA and RNA were also isolated from each replicon cell lines. PCR reactions on genomic DNA were carried out to assess the possibility that the G418 resistance was due to expression of the phosphatransferase from integrated neo resistant gene into the Huh-7 cell genome. […] Therefore, the date indicate that it is unlikely that the resistance is due to integration of residue DNA in our RNA preparation into the genome of Huh-7 cells.
Five […]g of replicon RNA was electroporated into 5×10^6 cells of the hepatoma cell line, Huh-7. […] Huh-7 cells were pelleted, washed, counted and resuspended to a final concentration of 1×10^7 cells/ml in Opti-MEM media (Invitrogen). […]

Row | Substance | susceptibility compared with the type 1b replicon system (type 1a replicon system) | replicon copy number (Huh-7 cells [1]) [copies/cell] | generation of stable cell lines / stable replication after transfection into Huh-7 cells (Huh-7 cells [2])
1 | interferon | similar | – | –
2 | HCV 1a replicon | – | 165 | able to stably replicate and confer resistance to G418
